{
  "source": "paper PMC9814779",
  "about": "“A triple farnesoid X receptor and peroxisome proliferator-activated receptor α/δ activator reverses hepatic fibrosis in diet-induced NASH in mice” (Communications Chemistry, 2020)",
  "test_system": "FXR- and PPAR-regulated genes in mouse liver",
  "assay": "Pilot animal experiment: hepatic FXR- and PPAR-regulated mRNA expression",
  "format": "in vivo, mice",
  "details": "single oral dose 10 mg/kg",
  "description": "Nine male RjOrl:Swiss (CD-1) mice (38–41 g body weight, purchased from Janvier Labs, France) were used for the pilot in vivo study. […] Food and water were available ad libitum. The in-life phase was performed by the contract research organization Pharmacelsus (Saarbrücken, Germany). All experimental procedures were approved by and conducted in accordance with the regulations of the local Animal Welfare authorities (Landesamt für Gesundheit und Verbraucherschutz, Abteilung Lebensmittel- und Veterinärwesen, Saarbrücken). Six animals received a single oral dose of 10 mg/kg body weight of 41, and three animals received the vehicle. Water containing 1% hydroxypropyl methylcellulose (HPMC)/Tween 80 (99:1) served as vehicle.\nTwelve or 18 hours after test compound application, mice were anesthetized under isoflurane and then sacrificed by cervical dislocation for tissue collection. Complete livers were obtained, immediately snap-frozen, and stored at −80 °C until further evaluation.\nLiver tissue samples from mice were used to study the mRNA expression of FXR- and PPAR-regulated genes. To homogenize the tissue samples for qRT-PCR analysis, one-third of each liver was placed on a Falcon Cell Strainer with 40-μm pore size (BD Bioscience, Erembodegem, Belgium) in a 50-mL Falcon tube. Every tissue was rinsed with PBS buffer containing 10% FCS, penicillin (100 U/mL), and streptomycin (100 μg/mL) and pressed through the cell strainer until 5 mL cell suspension had been collected. The samples were centrifuged at 1200 rpm for 10 min at 4 °C. […] Two micrograms per sample of the extracted RNA were reverse-transcribed into cDNA using the High-Capacity cDNA Reverse Transcription Kit (4368814, Thermo Fischer Scientific, Inc.) according to the manufacturer’s protocol. mRNA expression was studied by quantitative real-time PCR analysis with a StepOnePlus System (Applied Biosystems) based on the 2^−ΔCT method (Supplementary Fig. 6) or the 2^−ΔΔCT method (Fig. 6) using Power SYBR Green PCR Master Mix (Life Technologies). […]",
  "data": [
    {"smiles": "CC(C)(C)c1ccc(C(=O)Nc2cccc(CCC(=O)O)c2)c(NC(=O)c2ccc(-c3ccco3)cc2)c1", "note": "[compound 41, 3-(3-[4-{tert-Butyl}-2-{4-(2-furyl)}benzamido]phenyl)propanoic acid]", "values": [
      {"measurement": "adverse effects, behaviour", "result": "no adverse effects"},
      {"measurement": "hepatic expression of BSEP, SHP, LPL, PCK and CRAT, 12 h", "setting": "12 h after treatment, vs. vehicle", "result": "increased"},
      {"measurement": "effect on FXR- and PPAR-regulated gene expression in livers, 18 h", "setting": "after 18 h", "result": "significantly reduced"}
    ]}
  ]
}
